Several values for one entry are separate records, joined by “and”; a condition that tells them apart may be missing. Identical values can stand only once. Counter-ions that a name gives are not always drawn.
Columns and labels:
[1] = Penile erectile response ([…] score) with erotic and neutral videos (Example 5); format: in vivo, human; conditions: for Total RIGISCAN Score, Erotic 1: N = 31-36, ** significantly higher than placebo 1 and 2
Experimental: Each of the selected subjects' penile erectile response (measured with the […]™ ambulatory tumescence monitor) was evaluated using the scoring system as set out in Table IX, below.
The combining of the scores of A, B, C, and D from Table IX yields a total score for each subject. A total score of less than 16 for any individual subject indicates erectile dysfunction.
Patients not experiencing nausea or any other significant adverse effects within fifteen minutes post-dosing with APO or placebo viewed segments of standardized erotic videos to provide sexual stimulation. […] The duration of the testing session for each dose level lasted between 45 and 60 minutes.
This aim was accomplished during the first two phases of the study in which subjects were attached to the […]™ monitor. Subjects were initially treated with placebo, followed by APO 4, 6, and 8 mg. tablets with a placebo tablet randomly interspersed in the treatment.

[2] = 100-400 μg/kg, up to four days, primates; cited from earlier work

For `CN1CCc2cccc3c2[C@H]1Cc1ccc(O)c(O)c1-3` [apomorphine HCl], the “RIGISCAN score, erotic #1, comparison in words” value ([1]; 4 mg, Site #1) was “slightly lower”, the “Penile Measurements (Maximum Increases), LSMEAN, NEUTRAL” value ([1]; 4 mg, b698 all sites, b704 site #1, b710 #2, b716 #3, b722 #4, listed as APO) was 8.70 and the “Total RIGISCAN Score, Erotic 1” value ([1]; 6 mg) was 17.09 ± 1.64. For the same compound, the “Penile Measurements (Maximum Increases), MEAN, NEUTRAL” value ([1]; 6 mg, b699 all sites, b705 site #1, b711 #2, b717 #3, b723 #4, listed as APO) was 9.60, the “Total RIGISCAN Score, Erotic 1” value ([1]; 8 mg) was 19.84 ± 1.61 and the “Total RIGISCAN Score, Neutral” value ([1]; 8 mg, N = 41-48, **) was 11.95 ± 1.37. The “Penile Measurements (Maximum increase), Mean, EROTIC #1” value ([1]; 8 mg, all sites, site #1, #2, #4, listed as APO) was 19.84 and 15.60 and 25.00, the “RIGISCAN scores, treatment effect vs second placebo in words” value ([1]; 4, 6, and 8 mg) was “most of the treatment effects were significant to highly significant compared to the second placebo” and the “RIGISCAN scores, treatment effect in words” value ([1]; 4, 6, and 8 mg vs initial placebo) was “significant to highly significant”. For the same compound, the “RIGISCAN scores for penile increases in words” value ([1]; active doses, each of four sites, neutral and erotic sequences) was “improved significantly”, the “RIGISCAN reading, effective in causing erections” value ([1]; all doses, erotic stimulation) was “greater than or equal to 15” and the “adverse effects of multiple doses” value [2] was “without major adverse effects”.
